Legend:
CDK12 = CDK12 (Homo sapiens (Human), UniProt Q9NYV4); assay: LANCE Ultra kinase assay, CDK12; assay type: biochemical; conditions: 30 nM enzyme, 60 min pre-incubation, ULight-4E-BP1 150 nM; read-out: CDK12 IC50
Description: (§1) The inhibitory activities of the test compound on the kinases were evaluated by LANCE Ultra assay, which was used for detecting ATP-dependent phosphorylation of a ULight-4E-BP1 (Thr37/Thr46) substrate peptide (150 nM). In short, enzymatic reactions were performed in a reaction buffer (25 mM HEPES (pH 7.5), 10 mM MgCl2, 0.01% BSA, 0.01% Tween 20, and 1 mM DTT). The assay was performed in a 384-well plate (6 μL). A final concentration of an ATP substrate was […], and a final concentration of the ULight-4E-BP1 (Thr37/Thr46) substrate peptide was 150 nM. A final concentration of CDK9, CDK12, or CDK13 was 0.3, 30, or 30 nM, respectively. Pre-incubation of the compound and the enzyme was performed at room temperature for 60 min. The reaction was stopped by adding 10 mM EDTA and 0.15 nM Eu-labeled anti-phospho-eIF4E-binding protein 1 (Thr37/46) antibody in LANCE detection buffer after incubation at room temperature for 15, 60, or 90 min. Time-resolved fluorescence (excitation, 320 nm; emission donor, 615 nm; emission acceptor, 665 nm) was monitored using an EnVision spectrophotometer (PerkinElmer). Readings were computed as (acceptor count/donor count)×1000. IC50 values were derived by fitting a sigmoidal dose-response curve to a plot of assay readouts of inhibitor concentrations. All fittings were computed using program Prism 5.03 (GraphPad Software, San Diego, CA).

CDK13 = CDK13 (Homo sapiens (Human), UniProt Q14004); assay: LANCE Ultra kinase assay, CDK13; assay type: biochemical; conditions: 30 nM enzyme, 60 min pre-incubation, ULight-4E-BP1 150 nM; read-out: CDK13 IC50
Chain of CDK13 (Q14004 whole entry, looked up): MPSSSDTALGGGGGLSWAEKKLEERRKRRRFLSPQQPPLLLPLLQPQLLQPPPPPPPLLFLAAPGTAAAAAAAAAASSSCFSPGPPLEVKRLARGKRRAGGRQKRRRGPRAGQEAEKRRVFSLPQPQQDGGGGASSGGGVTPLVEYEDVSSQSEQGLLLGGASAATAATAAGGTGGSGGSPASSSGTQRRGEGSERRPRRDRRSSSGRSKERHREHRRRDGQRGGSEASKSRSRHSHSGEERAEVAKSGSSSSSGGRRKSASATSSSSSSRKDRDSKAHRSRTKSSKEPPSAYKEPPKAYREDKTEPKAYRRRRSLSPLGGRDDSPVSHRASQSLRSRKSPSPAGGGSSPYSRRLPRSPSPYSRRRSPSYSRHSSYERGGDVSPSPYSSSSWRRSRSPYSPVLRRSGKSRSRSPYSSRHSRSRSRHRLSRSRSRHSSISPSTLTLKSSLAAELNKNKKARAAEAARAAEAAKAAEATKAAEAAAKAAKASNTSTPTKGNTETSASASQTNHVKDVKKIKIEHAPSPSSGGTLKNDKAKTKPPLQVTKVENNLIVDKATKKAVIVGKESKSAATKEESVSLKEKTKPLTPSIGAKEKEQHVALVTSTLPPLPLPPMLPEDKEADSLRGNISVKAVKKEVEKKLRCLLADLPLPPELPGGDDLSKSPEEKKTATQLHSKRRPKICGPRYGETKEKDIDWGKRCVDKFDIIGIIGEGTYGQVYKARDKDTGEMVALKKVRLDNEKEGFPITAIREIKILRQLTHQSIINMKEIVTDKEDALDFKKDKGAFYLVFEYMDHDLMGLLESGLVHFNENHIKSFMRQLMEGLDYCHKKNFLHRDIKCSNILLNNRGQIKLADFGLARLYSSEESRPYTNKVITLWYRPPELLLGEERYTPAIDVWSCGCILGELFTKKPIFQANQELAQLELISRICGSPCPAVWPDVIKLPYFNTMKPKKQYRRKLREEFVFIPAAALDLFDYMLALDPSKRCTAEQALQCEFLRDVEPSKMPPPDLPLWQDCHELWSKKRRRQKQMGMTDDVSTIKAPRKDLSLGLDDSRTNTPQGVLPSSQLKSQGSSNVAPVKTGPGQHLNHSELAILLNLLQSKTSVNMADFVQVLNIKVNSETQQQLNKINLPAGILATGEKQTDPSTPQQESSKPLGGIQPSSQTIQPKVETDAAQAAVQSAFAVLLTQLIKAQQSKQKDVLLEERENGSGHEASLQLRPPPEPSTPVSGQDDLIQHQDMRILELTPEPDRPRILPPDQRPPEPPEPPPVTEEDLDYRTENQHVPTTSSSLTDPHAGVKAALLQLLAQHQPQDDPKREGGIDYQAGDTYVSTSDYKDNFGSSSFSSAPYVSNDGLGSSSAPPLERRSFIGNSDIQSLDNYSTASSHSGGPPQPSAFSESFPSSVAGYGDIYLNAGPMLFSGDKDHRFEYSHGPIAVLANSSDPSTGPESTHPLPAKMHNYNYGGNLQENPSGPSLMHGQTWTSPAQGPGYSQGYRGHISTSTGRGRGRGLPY
Chain of CDK13 (O75909 whole entry partner, looked up): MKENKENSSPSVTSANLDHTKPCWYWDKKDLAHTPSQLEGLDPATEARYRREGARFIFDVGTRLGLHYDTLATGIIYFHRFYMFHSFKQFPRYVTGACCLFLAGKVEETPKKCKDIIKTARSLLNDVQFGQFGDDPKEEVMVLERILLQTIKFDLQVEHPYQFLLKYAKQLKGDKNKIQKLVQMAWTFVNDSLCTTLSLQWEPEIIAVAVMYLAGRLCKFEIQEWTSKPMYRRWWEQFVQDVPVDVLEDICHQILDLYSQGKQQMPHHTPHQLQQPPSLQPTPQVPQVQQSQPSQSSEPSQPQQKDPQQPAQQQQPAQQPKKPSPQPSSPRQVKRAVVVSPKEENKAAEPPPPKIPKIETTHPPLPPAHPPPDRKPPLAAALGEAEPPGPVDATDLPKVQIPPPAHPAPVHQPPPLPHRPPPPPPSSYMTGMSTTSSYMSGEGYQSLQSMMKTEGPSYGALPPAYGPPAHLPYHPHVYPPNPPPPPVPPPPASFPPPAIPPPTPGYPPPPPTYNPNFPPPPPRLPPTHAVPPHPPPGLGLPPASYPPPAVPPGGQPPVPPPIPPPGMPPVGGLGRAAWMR
Description: as §1

Chain of CDK12 (Q9NYV4 whole entry): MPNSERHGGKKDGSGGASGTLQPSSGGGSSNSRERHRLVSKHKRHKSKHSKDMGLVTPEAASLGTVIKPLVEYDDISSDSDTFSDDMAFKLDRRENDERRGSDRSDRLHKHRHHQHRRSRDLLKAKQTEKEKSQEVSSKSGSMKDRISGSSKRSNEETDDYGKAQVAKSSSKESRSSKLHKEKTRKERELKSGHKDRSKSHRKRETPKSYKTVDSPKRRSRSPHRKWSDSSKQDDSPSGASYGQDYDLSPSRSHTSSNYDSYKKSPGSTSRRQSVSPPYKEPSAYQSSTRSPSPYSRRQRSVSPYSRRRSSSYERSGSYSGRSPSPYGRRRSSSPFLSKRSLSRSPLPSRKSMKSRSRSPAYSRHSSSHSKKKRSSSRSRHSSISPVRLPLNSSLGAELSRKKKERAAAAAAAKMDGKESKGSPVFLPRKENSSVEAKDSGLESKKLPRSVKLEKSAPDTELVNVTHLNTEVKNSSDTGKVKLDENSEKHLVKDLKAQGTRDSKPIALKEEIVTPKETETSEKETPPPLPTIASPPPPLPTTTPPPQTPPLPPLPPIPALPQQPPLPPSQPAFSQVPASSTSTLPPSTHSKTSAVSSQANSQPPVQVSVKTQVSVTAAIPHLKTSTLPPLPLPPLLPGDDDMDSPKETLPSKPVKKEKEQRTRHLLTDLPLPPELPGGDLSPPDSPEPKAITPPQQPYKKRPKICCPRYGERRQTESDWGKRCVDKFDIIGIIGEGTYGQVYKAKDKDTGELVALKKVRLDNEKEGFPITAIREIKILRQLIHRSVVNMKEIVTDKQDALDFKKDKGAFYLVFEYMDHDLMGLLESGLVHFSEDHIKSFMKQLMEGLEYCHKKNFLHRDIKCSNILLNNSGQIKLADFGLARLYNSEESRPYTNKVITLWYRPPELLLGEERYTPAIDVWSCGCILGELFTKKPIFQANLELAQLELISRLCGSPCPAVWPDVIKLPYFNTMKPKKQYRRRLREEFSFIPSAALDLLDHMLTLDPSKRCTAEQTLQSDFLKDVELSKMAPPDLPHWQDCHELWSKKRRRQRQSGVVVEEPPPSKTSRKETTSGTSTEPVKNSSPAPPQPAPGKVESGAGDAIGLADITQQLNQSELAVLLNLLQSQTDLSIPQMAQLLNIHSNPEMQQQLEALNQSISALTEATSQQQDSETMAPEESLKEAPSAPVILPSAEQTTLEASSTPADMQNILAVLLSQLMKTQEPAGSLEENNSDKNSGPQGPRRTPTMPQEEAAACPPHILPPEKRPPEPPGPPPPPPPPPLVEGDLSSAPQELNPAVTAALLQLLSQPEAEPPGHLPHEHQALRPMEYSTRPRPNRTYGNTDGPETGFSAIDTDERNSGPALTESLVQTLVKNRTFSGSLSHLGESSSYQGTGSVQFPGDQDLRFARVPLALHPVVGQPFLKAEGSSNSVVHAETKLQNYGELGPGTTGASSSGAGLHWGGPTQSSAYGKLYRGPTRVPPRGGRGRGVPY
Chain of CDK12 (O75909 whole entry partner): as the sequence (O75909 whole entry partner, looked up) above

Row | SMILES | IC50 (CDK12) | IC50 (CDK13)
1 | C=CC(=O)Nc1cc(N(C(=O)NCC2COC2)[C@H]2CC[C@H](Nc3ccc(C#N)cn3)CC2)ccc1N1CCN(C)[C@@H](C)C1 [YJZ1031, N-(5-(1-((1r,4S)-4-((5-cyanopyridin-2-yl)amino)cyclohexyl)-3-(oxetanyl-3-ylmethyl)ureido)-2-((S)-3,4-dimethylpiperazin-1-yl)phenyl)acrylamide] | > 500 nM | > 500 nM
2 | C=CC(=O)Nc1cc(N(C(=O)NCC(F)(F)F)[C@H]2CC[C@H](Nc3ccc(C#N)cn3)CC2)ccc1N1CCN(C)[C@@H](C)C1 [YJZ1065, N-(5-(1-((1r,4S)-4-((5-cyanopyridin-2-yl)amino)cyclohexyl)-3-(2,2,2-trifluoroethyl)ureido)-2-((S)-3,4-dimethylpiperazin-1-yl)phenyl)acrylamide] | 50 to 500 nM | 50 to 500 nM
3 | C=CC(=O)Nc1cc(N(C(=O)NCc2ccccc2)[C@H]2CC[C@H](Nc3ccc(C(F)(F)F)cn3)CC2)ccc1N1CCN(C)[C@@H](C)C1 [YJZ1066, N-(5-(3-benzyl-1-((1r,4S)-4-((5-(trifluoromethyl)pyridin-2-yl)amino)cyclohexyl)ureido)-2-((S)-3,4-dimethylpiperazin-1-yl)phenyl)acrylamide] | 15 to 50 nM | < 15 nM
4 | C=CC(=O)Nc1cc(N(C(=O)NCc2ccccc2)[C@H]2CC[C@H](Nc3ccc(Cl)cn3)CC2)ccc1N1CCN(C)[C@@H](C)C1 [YJZ1070, N-(5-(3-benzyl-1-((1r,4S)-4-((5-chloropyridin-2-yl)amino)cyclohexyl)ureido)-2-((S)-3,4-dimethylpiperazin-1-yl)phenyl)acrylamide] | 15 to 50 nM | 15 to 50 nM
5 | C=C(F)C(=O)Nc1cc(N(C(=O)NCc2ccccc2)[C@H]2CC[C@H](Nc3ccc(C#N)cn3)CC2)ccc1N1CCN(C)[C@@H](C)C1 [YJZ1072, N-(5-(3-benzyl-1-((1r,4S)-4-((5-cyanopyridin-2-yl)amino)cyclohexyl)ureido)-2-((S)-3,4-dimethylpiperazin-1-yl)phenyl)-2-fluoroacrylamide] | 50 to 500 nM | 15 to 50 nM

Now from value to molecule:

Row | IC50 (CDK12) | IC50 (CDK13) | SMILES
6 | 50 to 500 nM | 50 to 500 nM | C=CC(=O)Nc1cc(N(C(=O)NCC2CC2)[C@H]2CC[C@H](Nc3ccc(C#N)cn3)CC2)ccc1N1CCN(C)[C@@H](C)C1 [YJZ1025, N-(5-(1-((1r,4S)-4-((5-cyanopyridin-2-yl)amino)cyclohexyl)-3-(cyclopropylmethyl)ureido)-2-((S)-3,4-dimethylpiperazin-1-yl)phenyl)acrylamide]
7 | > 500 nM | 50 to 500 nM | C=CC(=O)Nc1cc(N(C(=O)NCc2cnn(C)c2)[C@H]2CC[C@H](Nc3ccc(C#N)cn3)CC2)ccc1N1CCN(C)[C@@H](C)C1 [YJZ1033, N-(5-(1-((1r,4S)-4-((5-cyanopyridin-2-yl)amino)cyclohexyl)-3-((1-methyl-1H-pyrazol-4-yl)methyl)ureido)-2-((S)-3,4-dimethylpiperazin-1-yl)phenyl)acrylamide]
8 | < 15 nM | < 15 nM | C=CC(=O)Nc1cc(N(C(=O)NCc2ccccc2Cl)[C@H]2CC[C@H](Nc3ccc(C#N)cn3)CC2)ccc1N1CCN(C)[C@@H](C)C1 [YJZ1060, N-(5-(3-(2-chlorobenzyl)-1-((1r,4S)-4-((5-cyanopyridin-2-yl)amino)cyclohexyl)ureido)-2-((S)-3,4-dimethylpiperazin-1-yl)phenyl)acrylamide]
9 | 50 to 500 nM | 50 to 500 nM | C=CC(=O)Nc1cc(N(C(=O)NCc2cccnc2)[C@H]2CC[C@H](Nc3ccc(C#N)cn3)CC2)ccc1N1CCN(C)[C@@H](C)C1 [YJZ1061, N-(5-(1-((1r,4S)-4-((5-cyanopyridin-2-yl)amino)cyclohexyl)-3-(pyridin-3-ylmethyl)ureido)-2-((S)-3,4-dimethylpiperazin-1-yl)phenyl)acrylamide]
10 | 50 to 500 nM | 50 to 500 nM | C=CC(=O)Nc1cc(N(C(=O)NCc2cocn2)[C@H]2CC[C@H](Nc3ccc(C#N)cn3)CC2)ccc1N1CCN(C)[C@@H](C)C1 [YJZ1063, N-(5-(1-((1r,4S)-4-((5-cyanopyridin-2-yl)amino)cyclohexyl)-3-(oxazol-4-ylmethyl)ureido)-2-((S)-3,4-dimethylpiperazin-1-yl)phenyl)acrylamide]
